ChEMBL document CHEMBL3585308, “Discovery and Modification of in Vivo Active Nrf2 Activators with 1,2,4-Oxadiazole Core: Hits Identification and Structure-Activity Relationship Study” (J Med Chem, 2015)
≈ marks a conversion by molar mass, not a printed value. Calls of active or inactive are those of the source. No cut-off for these calls is given here.

Assays:
[1] = Permeability of the compound at pH 7.4 by PAMPA; type: physicochemical; conditions: read-out: permeability
[2] = biological target: T1, Nuclear factor erythroid 2-related factor 2 (Homo sapiens) (UniProt Q16236); test: Activation of Nrf2 in human HepG2-ARE-C8 cells assessed as upregulation of ARE level at 40 uM after 12 hrs by luciferase reporter gene assay relative to control; type: cell-based
T1 sequence (whole entry): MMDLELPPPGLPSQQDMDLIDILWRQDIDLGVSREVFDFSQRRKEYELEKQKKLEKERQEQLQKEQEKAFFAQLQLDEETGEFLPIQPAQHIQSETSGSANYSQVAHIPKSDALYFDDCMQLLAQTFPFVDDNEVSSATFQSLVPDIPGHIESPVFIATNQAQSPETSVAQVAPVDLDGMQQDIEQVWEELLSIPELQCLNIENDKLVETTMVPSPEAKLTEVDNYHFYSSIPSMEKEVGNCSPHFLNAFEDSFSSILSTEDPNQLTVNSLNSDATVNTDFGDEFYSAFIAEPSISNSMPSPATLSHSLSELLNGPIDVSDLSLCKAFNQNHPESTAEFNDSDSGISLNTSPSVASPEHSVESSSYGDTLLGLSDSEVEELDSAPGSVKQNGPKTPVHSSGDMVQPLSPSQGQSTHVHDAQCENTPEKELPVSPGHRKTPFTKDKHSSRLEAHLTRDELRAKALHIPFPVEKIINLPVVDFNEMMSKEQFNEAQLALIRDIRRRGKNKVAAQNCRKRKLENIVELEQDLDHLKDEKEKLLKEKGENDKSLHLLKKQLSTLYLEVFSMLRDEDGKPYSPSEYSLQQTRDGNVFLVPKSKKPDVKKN

[3] = biological target: T1, Nuclear factor erythroid 2-related factor 2 (Homo sapiens); test: Activation of Nrf2 in human HepG2-ARE-C8 cells assessed as upregulation of ARE level at 80 uM after 12 hrs by luciferase reporter gene assay relative to control; type: cell-based
[4] = biological target: T1, Nuclear factor erythroid 2-related factor 2 (Homo sapiens); test: Activation of Nrf2 in human HepG2-ARE-C8 cells assessed as upregulation of ARE level at 160 uM after 12 hrs by luciferase reporter gene assay relative to control; type: cell-based
HCT-116 [5] = test: Cytotoxicity against human HCT116 cells assessed as effect on cell proliferation at 5 to 80 uM after 24 hrs by MTT assay; type: cell-based; conditions: hct-116, 24 h
[6] = biological target: T1, Nuclear factor erythroid 2-related factor 2 (Homo sapiens); test: Activation of Nrf2 in human HepG2-ARE-C8 cells assessed as upregulation of ARE level at 20 uM after 12 hrs by luciferase reporter gene assay relative to control; type: cell-based
[7] = biological target: T1, Nuclear factor erythroid 2-related factor 2 (Homo sapiens); test: Activation of Nrf2 in human HepG2-ARE-C8 cells assessed as upregulation of ARE level at 0.2 uM after 12 hrs by luciferase reporter gene assay relative to control; type: cell-based
[8] = biological target: T1, Nuclear factor erythroid 2-related factor 2 (Homo sapiens); test: Activation of Nrf2 in human HepG2-ARE-C8 cells assessed as upregulation of ARE level at 0.02 uM after 12 hrs by luciferase reporter gene assay relative to control; type: cell-based
[9] = biological target: T1, Nuclear factor erythroid 2-related factor 2 (Homo sapiens); test: Activation of Nrf2 in human HepG2-ARE-C8 cells assessed as upregulation of ARE level at 2 uM after 12 hrs by luciferase reporter gene assay relative to control; type: cell-based
HCT-116 [10] = test: Cytotoxicity against human HCT116 cells assessed as reduction of cell proliferation at 80 uM after 24 hrs by MTT assay; type: cell-based; conditions: hct-116, 24 h
[11] = Dissociation constant, pKa of the compound by potentiometric titration method; type: physicochemical
[12] = Lipophilicity, log D of the compound at pH 7.4 by potentiometric titration method; type: physicochemical; conditions: buffer
[13] = Intrinsic aqueous solubility of the compound by potentiometric titration method; type: physicochemical; conditions: read-out: Intrinsic_solubility
[14] = Chemical stability assessed as compound degradation after 2 weeks; type: physicochemical; conditions: 336 h
[15] = biological target: T1, Nuclear factor erythroid 2-related factor 2 (Homo sapiens); test: Activation of Nrf2 in human HepG2-ARE-C8 cells assessed as upregulation of ARE level at 50 uM after 12 hrs by luciferase reporter gene assay relative to control; type: cell-based
[16] = biological target: T1, Nuclear factor erythroid 2-related factor 2 (Homo sapiens); test: Activation of Nrf2 in human HCT116 cells assessed as upregulation of HO-1 expression at 10 uM measured at 4 hrs by Western blot analysis; type: cell-based; conditions: HCT-116
[17] = biological target: T1, Nuclear factor erythroid 2-related factor 2 (Homo sapiens); test: Activation of Nrf2 in human HCT116 cells assessed as upregulation of NQO1 expression after 6 hrs by Western blot analysis; type: cell-based; conditions: HCT-116
[18] = biological target: T1, Nuclear factor erythroid 2-related factor 2 (Homo sapiens); test: Activation of Nrf2 in human HCT116 cells after 6 hrs by Western blot analysis; type: cell-based; conditions: HCT-116
[19] = biological target: T1, Nuclear factor erythroid 2-related factor 2 (Homo sapiens); test: Activation of Nrf2 in human HCT116 cells at 10 uM after 2 hrs by Western blot analysis; type: cell-based; conditions: HCT-116
[20] = biological target: T1, Nuclear factor erythroid 2-related factor 2 (Homo sapiens); test: Activation of Nrf2 in human HCT116 cells at 10 uM by qRT-PCR analysis; type: cell-based; conditions: HCT-116, TDE = time-dependent effect
[21] = biological target: T1, Nuclear factor erythroid 2-related factor 2 (Homo sapiens); test: Activation of Nrf2 in human HCT116 cells at 10 uM measured at 4 hrs by qRT-PCR analysis relative to control; type: cell-based; conditions: HCT-116
[22] = biological target: T1, Nuclear factor erythroid 2-related factor 2 (Homo sapiens); test: Activation of Nrf2 in human HCT116 cells assessed as upregulation of GCLM gene expression at 10 uM measured at 6 hrs by qRT-PCR analysis relative to control; type: cell-based; conditions: HCT-116
[23] = biological target: T1, Nuclear factor erythroid 2-related factor 2 (Homo sapiens); test: Activation of Nrf2 in human HCT116 cells assessed as upregulation of HO-1 gene expression at 10 uM measured at 6 hrs by qRT-PCR analysis relative to control; type: cell-based; conditions: HCT-116
[24] = biological target: T1, Nuclear factor erythroid 2-related factor 2 (Homo sapiens); test: Activation of Nrf2 in human HCT116 cells assessed as upregulation of NQO1 gene expression at 10 uM measured over 1 to 24 hrs by qRT-PCR analysis relative to control; type: cell-based; conditions: HCT-116
[25] = biological target: T1, Nuclear factor erythroid 2-related factor 2 (Homo sapiens); test: Activation of Nrf2 in human HCT116 cells measured at 4 hrs by qRT-PCR analysis; type: cell-based; conditions: HCT-116
[26] = biological target: T1, Nuclear factor erythroid 2-related factor 2 (Homo sapiens); test: Activation of Nrf2 in human HCT116 cells assessed as upregulation of GCLM gene expression measured at 4 hrs by qRT-PCR analysis; type: cell-based; conditions: HCT-116
[27] = biological target: T1, Nuclear factor erythroid 2-related factor 2 (Homo sapiens); test: Activation of Nrf2 in human HCT116 cells assessed as upregulation of HO-1 gene expression measured at 4 hrs by qRT-PCR analysis; type: cell-based; conditions: HCT-116
[28] = biological target: T1, Nuclear factor erythroid 2-related factor 2 (Homo sapiens); test: Activation of Nrf2 in human HCT116 cells assessed as upregulation of GCLM gene expression at 40 uM measured at 4 hrs by qRT-PCR analysis relative to control; type: cell-based; conditions: HCT-116
[29] = biological target: T1, Nuclear factor erythroid 2-related factor 2 (Homo sapiens); test: Activation of Nrf2 in human HCT116 cells assessed as upregulation of HO-1 gene expression at 40 uM measured at 4 hrs by qRT-PCR analysis relative to control; type: cell-based; conditions: HCT-116
[30] = biological target: T1, Nuclear factor erythroid 2-related factor 2 (Homo sapiens); test: Activation of Nrf2 in human HCT116 cells at 40 uM measured at 4 hrs by qRT-PCR analysis relative to control; type: cell-based; conditions: HCT-116
[31] = biological target: T1, Nuclear factor erythroid 2-related factor 2 (Homo sapiens); test: Activation of Nrf2 in human HCT116 cells assessed as upregulation of NQO1 gene expression at 40 uM measured at 4 hrs by qRT-PCR analysis relative to control; type: cell-based; conditions: HCT-116

Row | Papp [1] | fold change (FC) [2] | fold change (FC) [3] | fold change (FC) [4] | fold change (FC) [6] | fold change (FC) [7] | fold change (FC) [8] | fold change (FC) [9] | pKa [11] | logD [12] | solubility [13] | Structure (SMILES) | Activity (HCT-116 [10]) | other results
1 | 117 ×10⁻⁶ cm/s |  |  |  |  |  |  |  |  |  |  | CC(C)NCC(O)COc1cccc2ccccc12 (centres undefined) [PROPRANOLOL] |  | 
2 | 1.93 ×10⁻⁶ cm/s |  |  |  |  |  |  |  |  |  |  | CC(C(=O)O)c1cccc(C(=O)c2ccccc2)c1 (centres undefined) [KETOPROFEN] |  | 
3 |  | 5.96 | 5.48 | 8.36 | 3.88 | 1.83 | 1.46 | 3.17 |  |  |  | Cn1nnc2ccc(-c3noc(-c4ccc(F)cc4)n3)cc21 |  | Activity (HCT-116 [5]): Non-toxic
4 | 8.64 ×10⁻⁶ cm/s | 7.57 | 13.4 | 16.2 | 6.72 | 1.23 | 1.42 | 3.47 | 4.22 | 5.56 | 2.5 µM (≈ 0.781 µg/mL) | c1ccc2cc(-c3nc(-c4ccc5nc[nH]c5c4)no3)ccc2c1 | Non-toxic | 
5 |  | 53.6 | 42.6 | 38.4 | 36.6 | 3.76 | 1.73 | 12.1 |  |  |  | O=[N+]([O-])c1ccccc1-c1nc(-c2ccc3nc[nH]c3c2)no1 | Non-toxic | Stability [14]: Unstable
6 |  | 36.7 | 30.6 | 38.3 | 15.6 | 2.02 | 1.64 | 6.59 |  |  |  | O=[N+]([O-])c1ccc(-c2nc(-c3ccc4nc[nH]c4c3)no2)cc1 | Non-toxic | Stability [14]: Unstable
7 | 10.3 ×10⁻⁶ cm/s | 18.5 | 14.1 | 14.2 | 15.5 | 2.79 | 2.03 | 7.25 | 3.77 | 3.71 | 49.5 µM (≈ 14.7 µg/mL) | Clc1ccc(-c2nc(-c3ccc4nc[nH]c4c3)no2)cc1 | Non-toxic | 
8 |  | 4.05 | 5.88 | 6 | 3.31 | 1.22 | 1.18 | 1.47 |  |  |  | Cc1nc2cc(-c3noc(-c4ccccc4Br)n3)ccc2o1 |  | fold change (FC) [15]: 5.47
9 | 11.2 ×10⁻⁶ cm/s | 3.44 | 2.75 | 2.49 | 13.4 | 2.36 | 1.31 | 12.7 | 3.25 | 3.54 | 35.4 µM (≈ 12.1 µg/mL) | Brc1ccc(-c2nc(-c3ccc4nc[nH]c4c3)no2)cc1 | Non-toxic | 
10 |  | 12.4 | 12.1 | 8.73 | 7.61 | 1.5 | 1.09 | 3.35 |  |  |  | Cn1cnc2ccc(-c3noc(-c4ccc5cc[nH]c5c4)n3)cc21 |  | Activity (HCT-116 [5]): Non-toxic; Activity [16]: Active; Activity [17]: Dose-dependent effect; Activity [18]: Dose-dependent effect; Activity [19]: Active; Activity [20]: tde; fold change (FC) [21]: 5; fold change (FC) [22]: 2.5; fold change (FC) [23]: 2.4; fold change (FC) [24]: 1.5; Activity [25]: Dose-dependent effect; Activity [26]: Dose-dependent effect; Activity [27]: Dose-dependent effect; fold change (FC) [28]: 3.8; fold change (FC) [29]: 7; fold change (FC) [30]: 3.4; fold change (FC) [31]: 2
11 | 5.26 ×10⁻⁶ cm/s | 23.7 | 3.19 | 4.46 | 21.4 | 4.72 | 1.49 | 14.2 | 3.69 | 3.66 | 12.3 µM (≈ 3.23 µg/mL) | c1ccc(-c2nc(-c3ccc4nc[nH]c4c3)no2)cc1 | Non-toxic | 
12 | 4.78 ×10⁻⁶ cm/s | 24.2 | 17.9 | 3.73 | 19.1 | 2.28 | 1.23 | 9.01 | 4 | 4.01 | 14 µM (≈ 4.62 µg/mL) | FC(F)(F)c1ccccc1-c1nc(-c2ccc3nc[nH]c3c2)no1 | Non-toxic | 
13 |  | 1.45 | 1.37 | 2.44 | 1.39 | 1.4 | 1.44 | 1.43 |  |  |  | Cn1cnc2ccc(-c3noc(-c4ccc5ccccc5c4)n3)cc21 | Non-toxic | 
14 |  | 1.32 | 1.39 | 2.09 | 1.33 | 1.48 | 1.36 | 2.46 |  |  |  | N#Cc1ccccc1-c1nc(-c2ccc3nc[nH]c3c2)no1 | Non-toxic | 
15 |  | 7.34 | 7.67 | 11.7 | 5.65 | 1.12 | 1.18 | 4.48 |  |  |  | Cn1nnc2cc(-c3noc(-c4ccccc4)n3)ccc21 |  | Activity (HCT-116 [5]): Non-toxic
